# Data as given in patent US20160060260A1, “BROMODOMAIN INHIBITORS FOR TREATING DISEASE” (Board of Regents, The University of Texas System, priority 2014, published 2016).
# pIC50: −log10 of the molar value.
# Biological target: T1, Recombinant human His-tagged Trim24-PHD-bromodomain (Homo sapiens, UniProt O15164)
# T1 construct: Recombinant human His-tagged Trim24-PHD-bromodomain (produced in-house); made in house
# T1 sequence (O15164 824-1006 limits assumed): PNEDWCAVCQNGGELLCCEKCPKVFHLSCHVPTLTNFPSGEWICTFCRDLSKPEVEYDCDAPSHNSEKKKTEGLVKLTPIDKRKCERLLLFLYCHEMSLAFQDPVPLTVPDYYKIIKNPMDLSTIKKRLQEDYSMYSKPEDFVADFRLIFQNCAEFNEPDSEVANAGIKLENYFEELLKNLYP
# Assay: Trim24 AlphaScreen Assay
# Type: binding
# Conditions: 5 nM Trim24 protein, 15 nM biotinylated H3K23ac (1-33aa) peptide
# Outline: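 His-tagged Trim24-PHD-bromodomain, biotinylated H3K23ac (1-33aa) peptide and compound incubated 1 h at room temperature in 50 mM Hepes pH 7.5, 100 mM NaCl, 0.12 mM Triton X-100.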
row,Structure (SMILES),pIC50
1,"Cn1cnc(S(=O)(=O)Nc2cc3c(cc2Oc2cccc(OCC#N)c2)n(C)c(=O)n3C)c1 [Example 76, N-(6-(3-(cyanomethoxy)phenoxy)-1,3-dimethyl-2-oxo-2,3-dihydro-1H-benzo[d]imidazol-5-yl)-1-methyl-1H-imidazole-4-sulfonamide]",6.00 to 7.00
2,"CCn1cc(S(=O)(=O)Nc2cc3c(cc2Oc2cccc(OCc4ccccc4)c2)n(C)c(=O)n3C)cn1 [Example 77, N-(6-(3-(benzyloxy)phenoxy)-1,3-dimethyl-2-oxo-2,3-dihydro-1H-benzo[d]imidazol-5-yl)-1-ethyl-1H-pyrazole-4-sulfonamide]",6.00 to 7.00
3,"Cn1c(=O)n(C)c2cc(Oc3cccc(OCc4ccccc4)c3)c(NS(=O)(=O)c3c[nH]cn3)cc21 [Example 78, N-(6-(3-(benzyloxy)phenoxy)-1,3-dimethyl-2-oxo-2,3-dihydro-1H-benzo[d]imidazol-5-yl)-1H-imidazole-4-sulfonamide]",6.00 to 7.00
4,"Cc1cc(S(=O)(=O)Nc2cc3c(cc2Oc2cccc(OCc4ccccc4)c2)n(C)c(=O)n3C)n(C)n1 [Example 79, N-(6-(3-(benzyloxy)phenoxy)-1,3-dimethyl-2-oxo-2,3-dihydro-1H-benzo[d]imidazol-5-yl)-1,3-dimethyl-1H-pyrazole-5-sulfonamide]",< 6.00
5,"Cn1ccnc1S(=O)(=O)Nc1cc2c(cc1Oc1cccc(OCc3ccccc3)c1)n(C)c(=O)n2C [Example 80, N-(6-(3-(benzyloxy)phenoxy)-1,3-dimethyl-2-oxo-2,3-dihydro-1H-benzo[d]imidazol-5-yl)-1-methyl-1H-imidazole-2-sulfonamide]",< 6.00
6,"Cn1c(=O)n(C)c2cc(Oc3cccc(OCc4ccccc4)c3)c(NS(=O)(=O)CCO)cc21 [Example 81, N-(6-(3-(benzyloxy)phenoxy)-1,3-dimethyl-2-oxo-2,3-dihydro-1H-benzo[d]imidazol-5-yl)-2-hydroxyethane-1-sulfonamide]",< 6.00
7,"Cn1cnc(S(=O)(=O)Nc2cc3c(cc2Oc2cccc(OCCCC(F)(F)F)c2)n(C)c(=O)n3C)c1 [Example 84, N-(1,3-dimethyl-2-oxo-6-(3-(4,4,4-trifluorobutoxy)phenoxy)-2,3-dihydro-1H-benzo[d]imidazol-5-yl)-1-methyl-1H-imidazole-4-sulfonamide]",6.00 to 7.00
8,"Cn1c(=O)n(C)c2cc(Oc3cccc(OCC(F)(F)F)c3)c(NS(=O)(=O)c3c[nH]cn3)cc21 [Example 88, N-(1,3-dimethyl-2-oxo-6-(3-(2,2,2-trifluoroethoxy)phenoxy)-2,3-dihydro-1H-benzo[d]imidazol-5-yl)-1H-imidazole-4-sulfonamide]",7.00 to 8.00
9,"COCCS(=O)(=O)Nc1cc2c(cc1Oc1cccc(OCC(F)(F)F)c1)n(C)c(=O)n2C [Example 89, N-(1,3-dimethyl-2-oxco-6-(3-(2,2,2-trifluoroethoxy)phenoxy)-2,3-dihydro-1H-benzo[d]imidazol-5-yl)-2-methoxyethane-1-sulfonamide]",6.00 to 7.00
10,"CCCOc1cc(OCCC)cc(Oc2cc3c(cc2NS(=O)(=O)c2cn(C)c(C)n2)n(C)c(=O)n3C)c1 [Example 90, N-(6-(3,5-dipropoxyphenoxy)-1,3-diemthyl-2-oxo-2,3-dihydro-1H-benzo[d]imidazol-5-yl)-1,2-dimethyl-1H-imidazole-4-sulfonamide]",7.00 to 8.00
11,"CCCOc1cc(OCCCOC)cc(Oc2cc3c(cc2NS(=O)(=O)c2cn(C)c(C)n2)n(C)c(=O)n3C)c1 [Example 94, N-(6-(3-(3-methoxypropoxy)-5-propoxyphenoxy)-1,3-dimethyl-2-oxo-2,3-dihydro-1H-benzo[d]imidazol-5-yl)-1,2-dimethyl-1H-imidazole-4-sulfonamide]",7.00 to 8.00
12,"COCCCn1cnc(S(=O)(=O)Nc2cc3c(cc2Oc2cccc(OCC(F)(F)F)c2)n(C)c(=O)n3C)c1 [Example 96, N-(1,3-dimethyl-2-oxo-6-(3-(2,2,2-trifluoroethoxy)phenoxy)-2,3-dihydro-1H-benzo[d]imidazol-5-yl)-1-(3-methoxypropyl)-1H-imidazole-4-sulfonamide]",7.00 to 8.00
13,"Cn1cnc(S(=O)(=O)Nc2cc3c(cc2Oc2cccc(OCCCC#N)c2)n(C)c(=O)n3C)c1 [Example 97, N-(6-(3-(3-cyanopropoxy)phenoxy)-1,3-dimethyl-2-oxo-2,3-dihydro-1H-benzo[d]imidazol-5-yl)-1-methyl-1H-imidazole-4-sulfonamide]",6.00 to 7.00
14,"CCCOc1cc(OCCCO)cc(Oc2cc3c(cc2NS(=O)(=O)c2cn(C)c(C)n2)n(C)c(=O)n3C)c1 [Example 98, N-(6-(3-(3-hydroxypropoxy)-5-propoxyphenoxy)-1,3-dimethyl-2-oxo-2,3-dihydro-1H-benzo[d]imidazol-5-yl)-1,2-dimethyl-1H-imidazole-4-sulfonamide]",7.00 to 8.00
15,"Cn1cnc(S(=O)(=O)Nc2cc3c(cc2Oc2cccc(OCC4CC4)c2)n(C)c(=O)n3C)c1 [Example 100, N-(6-(3-(cyclopropylmethoxy)phenoxy)-1,3-dimethyl-2-oxo-2,3-dihydro-1H-benzo[d]imidazol-5-yl)-1-methyl-1H-imidazole-4-sulfonamide]",7.00 to 8.00
16,"Cn1cc(S(=O)(=O)Nc2cc3c(cc2Oc2cccc(OCC4CC4)c2)n(C)c(=O)n3C)cn1 [Example 101, N-(6-(3-(cyclopropylmethoxy)phenoxy)-1,3-dimethyl-2-oxo-2,3-dihydro-1H-benzo[d]imidazol-5-yl)-1-methyl-1H-pyrazole-4-sulfonamide]",7.00 to 8.00
17,"Cc1c(S(=O)(=O)Nc2cc3c(cc2Oc2cccc(OCC4CC4)c2)n(C)c(=O)n3C)cnn1C [Example 102, N-(6-(3-(cyclopropylmethoxy)phenoxy)-1,3-dimethyl-2-oxo-2,3-dihydro-1H-benzo[d]imidazol-5-yl)-1,5-dimethyl-1H-pyrazole-4-sulfonamide]",7.00 to 8.00
18,"CCCOc1cccc(Oc2cc3c(cc2NS(=O)(=O)c2cn(C)cn2)n(C)c(=O)n3C)c1C [Example 103, N-(1,3-dimethyl-6-(2-methyl-3-propoxyphenoxy)-2-oxo-2,3-dihydro-1H-benzo[d]imidazol-5-yl)-1-methyl-1H-imidazole-4-sulfonamide]",< 6.00
19,"CCCOc1ccc(F)c(Oc2cc3c(cc2NS(=O)(=O)c2cn(C)cn2)n(C)c(=O)n3C)c1 [Example 104, N-(6-(2-fluoro-5-propoxyphenoxy)-1,3-dimethyl-2-oxo-2,3-dihydro-1H-benzo[d]imidazol-5-yl)-1-methyl-1H-imidazole-4-sulfonamide]",< 6.00

# Next, values leading:
row,pIC50,Structure (SMILES)
1,7.00 to 8.00,"CCCOc1cccc(Oc2cc3c(cc2NS(=O)(=O)c2cnn(C)c2)n(C)c(=O)n3C)c1 [Example 75, N-(1,3-dimethyl-2-oxo-6-(3-propoxyphenoxy)-2,3-dihydro-1H-benzo[d]imidazol-5-yl)-1-methyl-1H-pyrazole-4-sulfonamide]"
2,6.00 to 7.00,"CCCOc1cccc(Oc2cc3c(cc2NS(=O)(=O)C2CC2)n(C)c(=O)n3C)c1 [Example 82, N-(1,3-dimethyl-2-oxo-6-(3-propoxyphenoxy)-2,3-dihydro-1H-benzo[d]imidazol-5-yl)cyclopropanesulfonamide]"
3,7.00 to 8.00,"CCCOc1cccc(Oc2cc3c(cc2NS(=O)(=O)c2cn(C)cn2)n(C)c(=O)n3C)c1 [Example 83, N-(1,3-dimethyl-2-oxo-6-(3-propoxyphenoxy)-2,3-dihydro-1H-benzo[d]imidazol-5-yl)-1-methyl-1H-imidazole-4-sulfonamide]"
4,6.00 to 7.00,"CCCOc1cccc(Oc2cc3c(cc2NS(=O)(=O)CCOC)n(C)c(=O)n3C)c1 [Example 85, N-(1,3-dimethyl-2-oxo-6-(3-propoxyphenoxy)-2,3-dihydro-1H-benzo[d]imidazol-5-yl)-2-methoxyethane-1-sulfonamide]"
5,7.00 to 8.00,"CCCOc1cccc(Oc2cc3c(cc2NS(=O)(=O)c2c[nH]cn2)n(C)c(=O)n3C)c1 [Example 86, N-(1,3-dimethyl-2-oxo-6-(3-propoxyphenoxy)-2,3-dihydro-1H-benzo[d]imidazol-5-yl)-1H-imidazole-4-sulfonamide]"
6,6.00 to 7.00,"CCCOc1cccc(Oc2cc3c(cc2NS(=O)(=O)c2nnc[nH]2)n(C)c(=O)n3C)c1 [Example 87, N-(1,3-diemthyl-2-oxo-6-(3-propoxyphenoxy)-2,3-dihydro-1H-benzo[d]imidazol-5-yl)-4H-1,2,4-triazole-3-sulfonamide]"
7,7.00 to 8.00,"CCCOc1cccc(Oc2cc3c(cc2NS(=O)(=O)c2cnn(C)c2C)n(C)c(=O)n3C)c1 [Example 91, N-(1,3-dimethyl-2-oxo-6-(3-propoxyphenoxy)-2,3-dihydro-1H-benzo[d]imidazol-5-yl)-1,5-dimethyl-1H-pyrazole-4-sulfonamide]"
8,7.00 to 8.00,"CCCOc1cccc(Oc2cc3c(cc2NS(=O)(=O)c2c(C)n[nH]c2C)n(C)c(=O)n3C)c1 [Example 92, N-(1,3-dimethyl-2-oxo-6-(3-propoxyphenoxy)-2,3-dihydro-1H-benzo[d]imidazol-5-yl)-3,5-dimethyl-1H-pyrazole-4-sulfonamide]"
9,6.00 to 7.00,"CCCOc1cccc(Oc2cc3c(cc2NS(=O)(=O)c2cc(C)nn2C)n(C)c(=O)n3C)c1 [Example 93, N-(1,3-dimethyl-2-oxo-6-(3-propoxyphenoxy)-2,3-dihydro-1H-benzo[d]imidazol-5-yl)-1,3-dimethyl-1H-pyrazole-5-sulfonamide]"
10,6.00 to 7.00,"Cn1c(=O)n(C)c2cc(Oc3cccc(OCC(F)(F)F)c3)c(NS(=O)(=O)C3CCOC3)cc21 (stereo not drawn) [Example 95, N-(1,3-dimethyl-2-oxo-6-(3-(2,2,2-trifluoroethoxy)phenoxy)-2,3-dihydro-1H-benzo[d]imidazol-5-yl)tetrahydrofuran-3-sulfonamide]"
11,7.00 to 8.00,"CCCOc1cccc(Oc2cc3c(cc2NS(=O)(=O)c2cccnc2)n(C)c(=O)n3C)c1 [Example 99, N-(1,3-dimethyl-2-oxo-6-(3-propoxyphenoxy)-2,3-dihydro-1H-benzo[d]imidazol-5-yl)pyridine-3-sulfonamide]"
